Active and inactive are the calls of the source. The rule behind the calls is not given here.

The test system of experiment [1] is Mus musculus. Kind of experiment: Percent inhibition of acute TPA-induced ear swelling in mice upon topical application at 2x 100 ug. The class given is functional.
In experiment [2] the test system is Mus musculus. Kind of experiment: inhibition of acute TPA-induced ear swelling in mice on oral administration of 0.1 nmol/kg. The class given is functional.
The subject of experiment [3] is Mus musculus. Kind of experiment: inhibition of acute TPA-induced ear swelling in mice upon topical application of 2x 100 ug. The class given is functional.
The test system of experiment [4] is Mus musculus. Kind of experiment: inhibition of acute TPA-induced ear swelling in mice on oral administration of 0.1 nmol/kg; not active. The experiment is classed as functional, organism-based.
Experiment [5] is described as follows: Inhibitory dose was determined. The class given is functional. As to conditions: read-out: ID50 (the source's name).

The term Inhibition denotes the change of the read-out against control, counted positive when it falls. Low values mean a response near the control, high ones a response far below the control. What is called inhibition in vivo is the change of the read-out against control, counted positive when it falls. Read a low inhibition in vivo as a response near the control. `Cc1cc(C)nc(NC(=O)/C=C/c2cn(Cc3ccc(F)cc3)c3ccccc23)c1` yielded an Inhibition in experiment [1] of 66%. The inhibition in vivo at 0.0001 µmol/kg in experiment [2] is 80%.

`O=C(CCc1cn(Cc2ccccc2)c2ccccc12)Nc1ccncc1` yielded an Inhibition in experiment [1] of 90%. Moreover, the inhibition in vivo at 0.0001 µmol/kg in experiment [2] was 84%. The like results for `Cc1cc(C)nc(NC(=O)CCc2c[nH]c3ccccc23)c1` were, in that order, 66% and 72%.

In experiment [2], `O=C(CCc1cn(Cc2ccccc2)c2ccccc12)NCc1cccnc1` registered an inhibition in vivo at 0.0001 µmol/kg of 70%. In turn, `O=C(CCc1c[nH]c2ccccc12)Nc1ccncc1` gave an Inhibition in experiment [3] of 38%. Moreover, the inhibition in vivo at 0.0001 µmol/kg in experiment [2] came out at 77%. In the case of `O=C(CCn1ccc2ccccc21)Nc1ccncc1`, the inhibition in vivo at 0.0001 µmol/kg in experiment [2] worked out at 77%.

For the compound `Cc1cc(C)nc(NC(=O)CCc2cn(Cc3ccccc3)c3ccccc23)c1`, the inhibition in vivo at 0.0001 µmol/kg in experiment [2] was found to be 61%.

As to `Cc1cc(C)nc(NC(=O)CCc2cn(Cc3ccc(Cl)cc3)c3ccccc23)c1`, the inhibition in vivo at 0.0001 µmol/kg in experiment [2] turned out to be 64%. `O=C(CCc1c[nH]c2ccccc12)NCc1cccnc1`: the inhibition result in experiment [4] is “inactive”. Consider `C[C@@H]1C[C@H]2[C@@H]3CCC4=CC(=O)C=C[C@]4(C)[C@@]3(F)[C@@H](O)C[C@]2(C)[C@@]1(O)C(=O)CO` [DEXAMETHASONE], for which the Inhibition in experiment [1] is on record as 96%. For the same compound, in experiment [2], the inhibition in vivo at 0.0001 µmol/kg is 82%. Turning to `O=C(CCc1cn(Cc2ccc(Cl)cc2)c2ccc(Cl)cc12)Nc1ccncc1`, in experiment [2], the inhibition in vivo at 0.0001 µmol/kg is 64%. The same measure, in the same setting: with `O=C(CCc1cn(Cc2ccc(Cl)cc2)c2ccccc12)Nc1ccncc1` the figure was 72%.

In experiment [1], `Cc1cc(C)nc(NC(=O)CCc2cn(Cc3ccc(Cl)cc3)c3ccc(Cl)cc23)c1` had an Inhibition of 89%. Also, in experiment [2], the inhibition in vivo at 0.0001 µmol/kg came to 83%. For `O=C(CCc1cn(Cc2ccc(Cl)cc2)c2ccc(Cl)cc12)NCc1cccnc1` the same measures were 94% and 84%.

In experiment [1], `CC(C)Cc1ccc(C(C)C(=O)O)cc1` (configuration not stated) [IBUPROFEN] displayed an Inhibition of 59%. The compound also registered an inhibition in vivo at 0.0001 µmol/kg in experiment [2] of 35%. In the case of `O=C(CCc1cn(CCN2CCOCC2)c2ccccc12)Nc1ccncc1`, the inhibition in vivo at 0.0001 µmol/kg in experiment [2] amounted to 63%. On to `O=C(CCc1cn(Cc2ccc(Cl)cc2)c2ccccc12)NCc1cccnc1`, for which, in experiment [1], the Inhibition amounted to 71%. In experiment [5], the ED50 is 24 µmol/kg. The compound also returned an inhibition in vivo at 0.0001 µmol/kg in experiment [2] of 92%.

(Values after ChEMBL document CHEMBL1137105, “New N-pyridinyl(methyl)-indolalkanamides acting as topical inflammation inhibitors” (2004).)
